Data reported in paper PMC9405727, “A Setmelanotide-like Effect at MC4R Is Achieved by MC4R Dimer Separation” (Biomolecules, 2022).
“Also recorded” adds a separate entry of the source.

Legend:
[1] = tested on: MC4R/CB1R chimeric receptors; conditions: COS-7 cells; cited from earlier work
Description: Results were based on cAMP accumulation assays in COS-7 cells. […] Experiments were performed using GloSensor^TM assay enabling dynamic live cell measurement of cAMP increase. In order to compare the results of this study with results previously achieved in COS-7 cells, we used the same ...

[2] = tested on: HEK293 cells; experiment: GloSensor cAMP accumulation, isoproterenol internal control in transfected cells; assay type: cell-based, human
Description: Gs signaling was measured using cAMP assay GloSensor™, enabling real-time measurements of cAMP accumulation. HEK293 cells were transfected with either MC4R-WT or chimeric receptors. […] Non-PTX-treated cells received 10 µL MEM without supplements (Gibco Minimum Essential Media, Waltham, MA, USA) per well at the same time point. Bioluminescence was quantified using a Berthold Microplate Reader (Mithras LB940, Berthold Technologies GmbH and Co., Bad Wildbad, Germany). […] Cells stimulated with 1 µM isoproterenol served as an internal control. GloSensor™ results were expressed as relative luminescence units (RLU). The total cAMP formation was assessed in the time–response curve by calculating the area under the curve (AUC).

[3] = target: T1, MC4R-H158R (Homo sapiens, UniProt P32245, H158R); experiment: NFAT luciferase reporter gene assay (PLC activation, Gq/11 signaling), H158R; assay type: cell-based
T1 construct: expressed in transfected cells; host or cells: HEK293

[4] = target: MC4R-WT (Homo sapiens, UniProt P32245); experiment: NFAT luciferase reporter gene assay (PLC activation, Gq/11 signaling), MC4R-WT; conditions: MC4R-WT + PTX (50 ng/mL, 18 h before stimulation), HEK293; mean ± SEM, two to nine experiments
Description: Cells were maintained in minimal essential medium (MEM, Gibco, Waltham, MA, USA) supplemented with 5% fetal bovine serum (FBS, Gibco, Waltham, MA, USA) and NEAA incubated at 37 °C in humidified air containing 5% CO2. […] For the NFAT luciferase-based reporter gene assay, 1.5 × 10^4 cells per well were seeded in poly-L-lysine-coated (Gibco, Waltham, MA, USA) 96-well translucent plates (Falcon, Kaiserslautern, Germany) and incubated for 24 h.
For reporter gene assays, HEK293 cells were transfected 24 h after seeding with 45 ng plasmid DNA and 0.45 µL Metafectene (Biontex, Munich, Germany), according to the manufacturer’s protocol. […]
In order to determine phospholipase C (PLC) activation, luciferase-based reporter gene assays were conducted. […] Measurements were conducted by injecting 40 µL firefly luciferase substrate (Promega, Mannheim, Germany), and luminescence was determined with a plate reader (Mithras LB940). Signaling bias was analyzed using the formula described by Kenakin [27]:(4) Δlog(Emax/EC50)=log(Emax, A/EC50,A)−log(Emax, B/EC50, B) with A referring to the respective chimeric receptor and B being the reference (MC4R-WT). Emax was determined from concentration–response curves and depicts the maximal response (efficacy); EC50 describes the potency. Bias was further calculated, creating the antilog. […]

[5] = tested on: receptor-receptor interaction (WT, Chim 7, H158R, CB1R); experiment: Donor saturation assay (DSA, NanoBRET), specificity of receptor-receptor interaction; assay type: cell-based, human; conditions: for Bmax: DSA; for specificity of homodimer interaction: donor saturation assay, HEK293
Description: The interaction between MC4R-WT, CB1R, and the chimeric receptors was determined using NanoBRET™ (Promega, Mannheim, Germany). The receptors were either C-terminally tagged with HaloTag (HT) as an energy acceptor or C-terminally fused with NanoLuc (NL) as an energy donor. Then, 20 h after transfection, cells were detached from the wells and centrifuged at 130× g for 5 min and the pellet was resuspended in Opti-MEM (Gibco) without phenol red, supplemented with 4% FBS (Gibco). […] The cells were then reseeded into white opaque 96-well plates (Corning, Costar) and incubated for 4–6 h at 37° and 5% CO2. […] The BRET Ratio was calculated by dividing acceptor emission by donor emission. In order to correct for background bleedthrough, the background ratio (no acceptor DMSO control) was subtracted, and the unit was changed into miliBRET (mBU).
Supplements S1: Donor Saturation Assays (DSA) investigating the specificity of receptor-receptor interaction of WT, Chim7 and H158R.
Figure S1: Donor Saturation Assays (DSA) investigating the specificity of receptor-receptor interaction of WT, Chim7 and H158R. HEK293 cells were transfected with increasing amounts of acceptor while the amount of donor was held constant. A receptor interaction is called specific, if a saturation level (Bmax) can be achieved. This is represented by a […]
hyperbolic curve. […] WT-MC4R […]
served as positive control, CB1R was included as negative control as it is known not to […]
receptor interaction, represented by the black hyperbolic curve. The negative controls depict flat behavior. (B) Homodimerization of Chim 7 is depicted next to WT-MC4R homodimer formation. Interaction of Chim7 NL with CB1R HT served as negative control.
(C) Homodimerization of H158R is depicted next to positive and negative control. […] Data […]
represent three independent experiments each performed in triplicates. Values represent

[6] = tested on: receptor homodimer (MC4R-WT, CB1R, Chim 1-7, H158R); experiment: NanoBRET receptor homodimerization (BRET ratio, ΔBRET); conditions: for Relative Dimerization Compared to WT: NanoBRET data from Figure 2 (ΔBRET = chimera minus MC4R-WT), HEK293, no agonist, three independent experiments in triplicate; for homodimerization compared to MC4R-WT: NanoBRET, HEK293, n = 3 in triplicate; for nanoBRET rations, mean: difference to WT+WT, mean of the replicates
Description: Cells were maintained in minimal essential medium (MEM, Gibco, Waltham, MA, USA) supplemented with 5% fetal bovine serum (FBS, Gibco, Waltham, MA, USA) and NEAA incubated at 37 °C in humidified air containing 5% CO2. For the BRET assays, 4 × 10^5 HEK293 cells per well were seeded in 6-well plates for transfection.
For BRET assays, HEK293 cells were transfected 4–6 h after seeding. Transfection was performed using 8 µL FuGene HD (Promega, Mannheim, Germany) and 1.4 µg DNA in Opti-MEM (Gibco, Waltham, MA, USA). […] In addition, 200 ng Carrier DNA (pGEM3Z) was added.
For graphical depiction the delta BRET was calculated (3) ΔBRET=BRETRatiochimeric receptor−BRETRatioWT−MC4R

[7] = target: MC4R/CB1R chimeric receptor Chim 5 (substitution of ICL2) (UniProt P32245); experiment: FRET or BRET; NanoBRET in living HEK293 cells co-transfected with a NanoLuc fusion (donor; written as binder) and a HaloTag fusion (acceptor, ligand 618; written as target), NL/HT DNA ratio 1:5; BRET ratio in mBU after subtraction of the no-acceptor control; delta BRET = chimera minus MC4R-WT homodimer

T1 sequence (P32245 whole entry H158R): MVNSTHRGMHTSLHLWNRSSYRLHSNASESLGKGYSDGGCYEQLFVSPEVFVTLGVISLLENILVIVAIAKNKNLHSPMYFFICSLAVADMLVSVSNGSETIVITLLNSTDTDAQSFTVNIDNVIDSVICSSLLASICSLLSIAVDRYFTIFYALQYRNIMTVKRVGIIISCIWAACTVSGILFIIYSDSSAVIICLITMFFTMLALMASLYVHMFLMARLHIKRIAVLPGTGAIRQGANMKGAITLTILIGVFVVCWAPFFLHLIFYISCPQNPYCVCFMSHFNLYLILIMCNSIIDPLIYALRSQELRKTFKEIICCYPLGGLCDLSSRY
Sequence of MC4R-WT (P32245 whole entry): as the sequence (P32245 whole entry H158R) above, with R158H counted along it

## 4-Norleucine, 7-D-phenylalanine-alpha-melanocyte-stimulating hormone [NDP-alpha-MSH]
[1]
  stimulated cAMP levels of chimeric receptors compared to MC4R-WT: higher

## CC(C)NCC(O)c1ccc(O)c(O)c1 (centres unmarked) [Isop, isoproterenol]
[2]; cells transfected with Chim5, 1 µM isoproterenol, Assay 1
  cAMP AUC: 1461897
[2]; cells transfected with Chim5, 1 µM isoproterenol, Assay 2
  cAMP AUC: 430167
[2]; cells transfected with Chim5, 1 µM isoproterenol, Assay 3
  cAMP AUC: 324823
[2]; cells transfected with Chim5, 1 µM isoproterenol, Assay 4
  cAMP AUC: 256187
[2]; cells transfected with Chim6, 1 µM isoproterenol, Assay 1
  cAMP AUC: 1327867
[2]; cells transfected with Chim6, 1 µM isoproterenol, Assay 2
  cAMP AUC: 379487
[2]; cells transfected with Chim6, 1 µM isoproterenol, Assay 3
  cAMP AUC: 230900
[2]; cells transfected with Chim6, 1 µM isoproterenol, Assay 4
  cAMP AUC: 310727
[2]; cells transfected with Chim7, 1 µM isoproterenol, Assay 1
  cAMP AUC: 786920
[2]; cells transfected with Chim7, 1 µM isoproterenol, Assay 2
  cAMP AUC: 473207
[2]; cells transfected with Chim7, 1 µM isoproterenol, Assay 3
  cAMP AUC: 236040
[2]; cells transfected with Chim7, 1 µM isoproterenol, Assay 4
  cAMP AUC: 192750
[2]; cells transfected with WT, 1 µM isoproterenol, Assay 1
  cAMP AUC: 803127
[2]; cells transfected with WT, 1 µM isoproterenol, Assay 2
  cAMP AUC: 589360
[2]; cells transfected with WT, 1 µM isoproterenol, Assay 3
  cAMP AUC: 380950
[2]; cells transfected with WT, 1 µM isoproterenol, Assay 4
  cAMP AUC: 376050

## CC(=O)N[C@@H](CCCNC(=N)N)C(=O)N[C@H]1CSSC[C@@H](C(N)=O)NC(=O)[C@H](Cc2c[nH]c3ccccc23)NC(=O)[C@H](CCCNC(=N)N)NC(=O)[C@@H](Cc2ccccc2)NC(=O)[C@H](Cc2c[nH]cn2)NC(=O)[C@@H](C)NC1=O [Setmelanotide]
[3]; HEK293, H158R, 6 h at 37 °C, mean ± SEM, n = 4
  Emax at 1 µM: 135.93 ± 17.16 Fold over MC4R-WT Stimulated 1 µM
[3]; bias Setmelanotide calculation
  Emax: 135.93%
[4]
  Emax at 1 µM: 70.26 ± 9.13 Fold over MC4R-WT Stimulated 1 µM

## H158R: MC4R gain-of-function mutation located in ICL2 [Chim H158R]
[5]; HEK293, run 20211107
  Bmax: 109.9
[5]; HEK293, run 20211130
  Bmax: 119.8
[5]; HEK293, run 20211202
  Bmax: 137.4
[5]
  specificity of homodimer interaction: shows specific homodimer formation; also recorded: specific interaction
[6]
  Relative Dimerization Compared to WT: −28.94
  homodimerization compared to MC4R-WT: significantly impaired dimerization capacities
  nanoBRET rations, mean: -28.94

## MC4R-WT+MC4R-WT
[6]
  nanoBRET rations, mean: 0.000667

## MC4R-WT: wild-type melanocortin 4 receptor
[5]; HEK293, run 20210820
  Bmax: 129.2
[5]; HEK293, run 20210901
  Bmax: 118.3
[5]; HEK293, run 20210903
  Bmax: 124.8
[5]; HEK293, run 20210929
  Bmax: 127.1
[5]; HEK293, run 20211101
  Bmax: 143.5
[5]; HEK293, run 20211107
  Bmax: 109
[5]; HEK293, run 20211130
  Bmax: 120.4
[5]; HEK293, run 20211202
  Bmax: 130.7
[5]; HEK293, run 20211217
  Bmax: 122.3
[5]
  specificity of homodimer interaction: specific interaction
[6]
  Relative Dimerization Compared to WT: 0

## MC4R/CB1R chimeric receptor Chim 5 (substitution of ICL2) (from UniProt P32245 1-332)
[7]
  Relative Dimerization Compared to WT (delta BRET): -41.8

B1: CB1R: cannabinoid receptor type 1, negative control (protein)
chain: MKSILDGLADTTFRTITTDLLYVGSNDIQYEDIKGDMASKLGYFPQKFPLTSFRGSPFQEKMTAGDNPQLVPADQVNITEFYNKSLSSFKENEENIQCGENFMDIECFMVLNPSQQLAIAVLSLTLGTFTVLENLLVLCVILHSRSLRCRPSYHFIGSLAVADLLGSVIFVYSFIDFHVFHRKDSRNVFLFKLGGVTASFTASVGSLFLTAIDRYISIHRPLAYKRIVTRPKAVVAFCLMWTIAIVIAVLPLLGWNCEKLQSVCSDIFPHIDETYLMFWIGVTSVLLLFIVYAYMYILWKAHSHAVRMIQRGTQKSIIIHTSEDGKVQVTRPDQARMDIRLAKTLVLILVVLIICWGPLLAIMVYDVFGKMNKLIKTVFAFCSMLCLLNSTVNPIIYALRSKDLRHAFRSMFPSCEGTAQPLDNSMGDSDCLHKHANNAASVHRAAESCIKSTVKIAKVTMSVSTDTSAEAL
modifications: left off: NanoLuc, C-terminal, kept | HaloTag, C-terminal, kept
[6]
  homodimerization compared to MC4R-WT: decreased
